Assay results taken from US20220169645A1, “COMPOUNDS AS BRUTON TYROSINE KINASE INHIBITORS, PREPARATION METHODS AND MEDICAL APPLICATIONS THEREOF” (Eternity Bioscience Inc., priority 2020, published 2022).

Key:
human BTK-WT = target: T1, human BTK-WT (Homo sapiens, UniProt Q06187); test: BTK-Y223 autophosphorylation in HEK293 cells stably expressing BTK-WT (HTRF); type: cell-based; settings: 2 hours treatment
T1 construct: host or cells: HEK293 (ATCC CRL1573), lentiviral transduction, puromycin selected
Method: (§1) HEK293 cells (purchased from ATCC, CRL1573) stably expressing wild type BTK or mutant C481S BTK were generated by lentiviral transduction of constructs containing human BTK-WT or BTK-C481S mutant (Genecopoeia, Lv201 vector). Cells expressing BTK proteins were selected with puromycin treatment (1 μM). The protein expression was confirmed by western blotting of BTK and BTK-Y223 autophosphorylation. The cells were cultured in MEM medium (Sigma M2279), 10% heat-Inactivated FBS (Gibco 10100), penicillin streptomycin (Thermal Fisher 15140122), and puromycin (InvivoGen QLL-41-03). The BTK-Y223 phosphorylation was quantified using BTK phospho-Y223 kit (Cisbio 63ADK017PEG). HEK293/BTK stable cells were seeded in a 96-well plate at a density of 10 thousand cells/well in a total volume of 100 μL of media. Cells were incubated overnight in a humidified, 5% CO2 cell culture incubator at 37° C. The next day, the cells were treated with diluted compounds in a humidified, 5% CO2 cell culture incubator at 37° C. for 2 hours. The medium was removed from each well, and 50 μL of 1× lysis buffer from the assay kit was added into each well. The cells were incubated for 30 min at room temperature with shaking. Then 16 μL of lysate was transferred to a PROXIPLATE 384-plate (PerkinElmer 6008230), followed by addition of 4 μL of HTRF pre-mixed antibodies. After incubation overnight at room temperature, fluorescence signals in the plates were read on PHERAstar FSX instrument, using HTRF settings ([…]).
(§2) The relative cellular pBTK inhibition was calculated by HTRF signal change: The average of positive control well reading, and average of negative control reading were used as controls to calculate inhibition percentage.
(§3) The data was input into GraphPad Prism, using function “log(inhibitor) vs. response—Variable slope (four parameters)” to get IC50 values.

[1] = system: human TMD-8 diffuse large B-cell lymphoma cells; test: BTK-dependent cell proliferation in human TMD-8 cells (CellTiter-Glo); type: cell-based; settings: TMD8, 72 h, TMD-8 DLBCL cells, 3 days, absolute IC50
Method: The human TMD-8 DLBCL cancer cells were cultured in RPMI media with high glucose and glutamine (Genesee 25-506), 20% heat-inactivated FBS (Gibco 10100), penicillin streptomycin (Thermal Fisher 15140122) and 1 mM sodium pyruvate (Thermal Fisher 11360070). TMD-8 cells were centrifuged at 300 g for 5 minutes and the cells were resuspended into fresh cell culture media. The cells were counted and made to a cell stock of 1.3 million/mL. Then 75 μL of cells were seeded into each well of a white 96-well cell culture plate (Corning 353286). A serial dilution of compounds was made and 25 μL was added to each well. The plates were incubated for 3 days in a humidified, 5% CO2 atmosphere at 37° C. Inhibition of cell growth by the compounds was determined by measuring the ATP level generated by the cells with the Cell Titer-Glo Luminescent Cell Viability Kit (Promega G7572). Assay procedures were conducted according to the protocols provided by Promega. In brief, the treated cell-culture plate and its contents were equilibrated at room temperature for approximately 30 minutes. 100 μL of CellTiter-Glo® Reagent was added into each cell-culture well, and contents were mixed for 2 minutes on an orbital shaker to induce cell lysis. The plate was incubated at room temperature for 10 minutes to stabilize luminescent signal. The resulting luminescence signal was immediately read using a TECAN plate reader. The relative cell grow inhibition was calculated by Cell Titer-Glo luminescent signal change.
The average readings of media-only wells and the readings of positive control wells (no compound treatment) were used to calculate response percentage.
The data was input into GraphPad Prism, and the curve fitting was made using function “log(inhibitor) vs. response—Variable slope (four parameters)”. The interpolation function was used to calculate absolute IC50 values.

BTK-C481S = target: T2, BTK-C481S (Homo sapiens, UniProt Q06187, C481S); test: BTK-C481S kinase activity assay (ADP-Glo); type: biochemical; settings: BTK kinase inhibition, 30 min preincubation, 90 min reaction
T2 construct: purchased Abcam ABCAM 204166; host or cells: Baculovirus infected Sf9 cells
Method: (§4) These assays are to determine the degree of inhibition of the BTK-WT and BTK-C481S mutant kinase activity by measuring the amount of ADP produced during the enzymatic reactions. […] Compounds, BTK enzymes, ATP and substrate were all prepared in ix kinase assay buffer by diluting 5× stock of kinase assay buffer III (Signal Chem K03-09), in H2O, and adding DTT (Thermo ScientificA39255) for a final concentration of 50 μM. […] Then the plate was kept shaking for 30 min at room temperature to allow the binding of the compounds to the proteins. After the preincubation, ATP and the substrate, a total of 5 μL was added into each well. The plate was then spun down at 1000 rpm for 2 minutes and kept shaking for 90 min at room temperature. ADP detection was performed following the guidance from the ADP-Glo Kinase Assay kits (Promega V9101). Briefly, 10 μL of ADP-Glo reagent was added into each well. The plate was then spun down at 1000 rpm for 2 minutes and kept shaking at room temperature for 60 min. Twenty μL of the kinase detection solution was added into each well. The plate was incubated at room temperature for 30 min in dark. The plates were read for luminescence signals in Tecan M1000 directly following the 30 min incubation. Relative inhibition of BTK kinase activities were analyzed by calculating the luminescence signal change:
(§5) Data was input into GraphPad Prism, and the IC50 values were calculated using function “log(inhibitor) vs. response—Variable slope (four parameters)”.

full-length human BTK-WT = target: T3, full-length human BTK-WT (Homo sapiens, UniProt Q06187); test: BTK-WT kinase activity assay (ADP-Glo); type: biochemical; settings: BTK kinase inhibition, 30 min preincubation, 90 min reaction
T3 construct: The full-length human BTK-WT (ABCAM205800); purchased Abcam ABCAM205800; host or cells: Baculovirus infected Sf9 cells
Method: as §4, §5

BTK-C481S mutant = target: T4, BTK-C481S mutant (Homo sapiens, UniProt Q06187, C481S); test: BTK-Y223 autophosphorylation in HEK293 cells stably expressing BTK-C481S (HTRF); type: cell-based; settings: 2 hours treatment
T4 construct: host or cells: HEK293 (ATCC CRL1573), lentiviral transduction, puromycin selected
Method: as §1, §2, §3

T1 sequence (Q06187 whole entry): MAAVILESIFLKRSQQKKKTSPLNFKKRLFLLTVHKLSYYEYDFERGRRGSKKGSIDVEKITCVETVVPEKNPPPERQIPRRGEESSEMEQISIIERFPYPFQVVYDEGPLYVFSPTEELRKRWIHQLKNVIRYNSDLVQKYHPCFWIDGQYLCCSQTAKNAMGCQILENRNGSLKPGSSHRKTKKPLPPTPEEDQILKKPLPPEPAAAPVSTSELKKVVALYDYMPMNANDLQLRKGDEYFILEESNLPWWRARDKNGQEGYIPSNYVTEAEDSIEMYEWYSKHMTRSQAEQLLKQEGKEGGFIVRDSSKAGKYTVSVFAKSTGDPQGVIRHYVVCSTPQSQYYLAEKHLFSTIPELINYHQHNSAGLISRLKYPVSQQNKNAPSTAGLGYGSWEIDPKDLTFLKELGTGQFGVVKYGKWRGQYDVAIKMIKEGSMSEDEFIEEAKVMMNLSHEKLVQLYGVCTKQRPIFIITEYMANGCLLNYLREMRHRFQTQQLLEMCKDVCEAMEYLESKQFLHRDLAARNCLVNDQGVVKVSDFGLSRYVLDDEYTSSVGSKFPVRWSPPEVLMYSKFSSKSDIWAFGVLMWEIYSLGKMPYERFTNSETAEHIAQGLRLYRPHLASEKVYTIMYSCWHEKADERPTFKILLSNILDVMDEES
T3 sequence (Q06187 whole entry): as above
T2 sequence (Q06187 whole entry C481S): as the sequence (Q06187 whole entry) above, with C481S counted along it
T4 sequence (Q06187 whole entry C481S): as the sequence (Q06187 whole entry) above, with C481S counted along it

Row | SMILES | IC50 (human BTK-WT) [nM] | IC50 [1] [nM] | IC50 (BTK-C481S) [nM] | IC50 (full-length human BTK-WT) [nM] | IC50 (BTK-C481S mutant) [nM]
1 | COc1ccc(F)cc1C(=O)NCc1ccc(-n2nc(C(C)C)c(N)c2C(N)=O)cc1 [Example A1, 4-amino-1-(4-((5-fluoro-2-methoxybenzamido)methyl)phenyl)-3-isopropyl-1H-pyrazole-5-carboxamide] | 55 | 47 | 3.6 | 5.6 | 115
2 | CCOc1cc(CNC(=O)c2cc(F)ccc2OC)ccc1-n1nc(C(C)C)c(N)c1C(N)=O [Example A5, 4-amino-1-(2-ethoxy-4-((5-fluoro-2-methoxybenzamido)methyl)phenyl)-3-isopropyl-1H-pyrazole-5-carboxamide] | – | 240 | 11 | 11 | –
3 | COc1ccccc1C(=O)NCc1ccc(-n2nc(C(C)C)c(N)c2C(N)=O)cc1 [Example A9, 4-amino-3-isopropyl-1-(4-((2-methoxybenzamido)methyl)phenyl)-1H-pyrazole-5-carboxamide] | 84 | 140 | 14 | 14 | 170
4 | CC(C)c1nn(-c2ccc(CNC(=O)c3cccc4c3OCC4)cc2)c(C(N)=O)c1N [Example A10, 4-amino-1-(4-((2,3-dihydrobenzofuran-7-carboxamido)methyl)phenyl)-3-isopropyl-1H-pyrazole-5-carboxamide] | – | – | 60 | 62 | –
5 | COc1ccc(F)cc1C(=O)NCc1ccc(-n2nc(C(C)C)c(N)c2C(N)=O)c(F)c1 [Example A11, 4-amino-1-(2-fluoro-4-((5-fluoro-2-methoxybenzamido)methyl)phenyl)-3-isopropyl-1H-pyrazole-5-carboxamide] | – | – | 27 | 35 | –
6 | COc1ccc(F)cc1C(=O)NCc1ccc(-n2nc(C3CCOCC3)c(N)c2C(N)=O)cc1 [Example A12, 4-amino-1-(4-((5-fluoro-2-methoxybenzamido)methyl)phenyl)-3-(tetrahydro-2H-pyran-4-yl)-1H-pyrazole-5-carboxamide] | 130 | 160 | 5.8 | 26 | 180
7 | COc1ccc(F)cc1C(=O)NCc1ccc(-n2nc(C3CCCOC3)c(N)c2C(N)=O)cc1 (stereo not drawn) [Example A13, 4-amino-1-(4-((5-fluoro-2-methoxybenzamido)methyl)phenyl)-3-(tetrahydro-2H-pyran-3-yl)-1H-pyrazole-5-carboxamide] | 57 | 95 | 2.7 | 4.4 | 120
8 | COc1ccc(F)cc1C(=O)NCc1ccc(-n2nc(-c3cccs3)c(N)c2C(N)=O)cc1 [Example A14, 4-amino-1-(4-((5-fluoro-2-methoxybenzamido)methyl)phenyl)-3-(thiophen-2-yl)-1H-pyrazole-5-carboxamide] | 81 | 95 | 3.1 | 7.9 | 210
9 | COc1ccc(F)cc1C(=O)NCc1ccc(-n2nc(C3CCCC3)c(N)c2C(N)=O)cc1 [Example A15, 4-amino-3-cyclopentyl-1-(4-((5-fluoro-2-methoxybenzamido)methyl)phenyl)-1H-pyrazole-5-carboxamide] | 27 | 29 | 4.2 | 3.7 | 84
10 | COc1ccc(F)cc1C(=O)NCc1ccc(-n2nc(C3CCOC3)c(N)c2C(N)=O)cc1 (stereo not drawn) [Example A16, 4-amino-1-(4-((5-fluoro-2-methoxybenzamido)methyl)phenyl)-3-(tetrahydrofuran-3-yl)-1H-pyrazole-5-carboxamide] | 120 | 120 | 11 | 15 | 230
11 | COc1ccc(F)cc1C(=O)NCc1ccc(-n2nc(N3CCOCC3)c(N)c2C(N)=O)cc1 [Example A17, 4-amino-1-(4-((5-fluoro-2-methoxybenzamido)methyl)phenyl)-3-morpholino-1H-pyrazole-5-carboxamide] | – | – | 93 | 87 | –
12 | CCOc1cc(CNC(=O)c2cc(F)ccc2OC)cc(F)c1-n1nc(C(C)C)c(N)c1C(N)=O [Example A19, 4-amino-1-(2-ethoxy-6-fluoro-4-((5-fluoro-2-methoxybenzamido)methyl)phenyl)-3-isopropyl-1H-pyrazole-5-carboxamide] | – | – | 68 | 63 | –
13 | COc1ccc(F)cc1C(=O)NCc1ccc(-n2nc(C3CCC(F)(F)CC3)c(N)c2C(N)=O)cc1 [Example A22, 4-amino-3-(4,4-difluorocyclohexyl)-1-(4-((5-fluoro-2-methoxybenzamido)methyl)phenyl)-1H-pyrazole-5-carboxamide] | 74 | 110 | 8 | 8.1 | 120
